This passage reports Activity and IC50 results from ChEMBL document CHEMBL5338769, “Discovery of Norisoboldine Analogue III11 as a Novel and Potent Aryl Hydrocarbon Receptor Agonist for the Treatment of Ulcerative Colitis” (J Med Chem, 2023).

For data set [1], the target named is T1, Aryl hydrocarbon receptor (Mus musculus, UniProt P30561).
T1 sequence (P30561 whole entry): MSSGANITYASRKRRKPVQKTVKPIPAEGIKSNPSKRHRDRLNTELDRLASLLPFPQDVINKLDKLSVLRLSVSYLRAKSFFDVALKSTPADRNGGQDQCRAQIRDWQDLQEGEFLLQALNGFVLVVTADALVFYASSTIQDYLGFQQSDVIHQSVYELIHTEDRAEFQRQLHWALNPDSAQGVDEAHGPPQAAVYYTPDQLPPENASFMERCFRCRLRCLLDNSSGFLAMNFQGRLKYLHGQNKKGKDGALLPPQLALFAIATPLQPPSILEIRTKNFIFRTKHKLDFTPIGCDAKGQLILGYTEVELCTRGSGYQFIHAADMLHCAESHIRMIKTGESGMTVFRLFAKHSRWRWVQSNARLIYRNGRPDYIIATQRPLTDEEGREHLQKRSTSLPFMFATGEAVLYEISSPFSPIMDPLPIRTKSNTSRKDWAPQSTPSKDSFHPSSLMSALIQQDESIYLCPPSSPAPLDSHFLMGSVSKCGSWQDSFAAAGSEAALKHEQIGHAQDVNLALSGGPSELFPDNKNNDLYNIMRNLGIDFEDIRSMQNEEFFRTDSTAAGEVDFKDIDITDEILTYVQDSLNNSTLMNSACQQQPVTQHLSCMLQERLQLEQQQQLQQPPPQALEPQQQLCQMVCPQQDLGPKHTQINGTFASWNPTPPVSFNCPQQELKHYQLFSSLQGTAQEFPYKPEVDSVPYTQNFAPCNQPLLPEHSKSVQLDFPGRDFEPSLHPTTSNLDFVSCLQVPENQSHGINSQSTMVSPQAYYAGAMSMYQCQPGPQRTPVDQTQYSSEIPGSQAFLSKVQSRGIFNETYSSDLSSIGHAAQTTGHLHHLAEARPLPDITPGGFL
In words: Activation of AhR transcription in C57BL/6 mouse naive T cells assessed as increase in AhRR mRNA expression at 1 to 3 uM by qRT-PCR analysis. Format: cell-based. Particulars: t cell, dose 1-3 µM.

For data set [2], the target named is T1, Aryl hydrocarbon receptor. In words: Activation of AhR transcription in C57BL/6 mouse naive T cells assessed as increase in UGT1A1 mRNA expression at 1 to 3 uM by qRT-PCR analysis. Format: cell-based. The note with it: t cell, dose 1-3 µM.
The next data set relates to EL4. In words: Cytotoxicity against mouse EL4 cells assessed as inhibition of cell proliferation incubated for 72 hrs by MTT assay. Format: functional, cell-based. Particulars: for IC50: EL4, 72 h.
In data set [3] the target is T1, Aryl hydrocarbon receptor. The experiment in a line: Activation of AhR transcription in C57BL/6 mouse naive T cells assessed as increase in CYP1A1 mRNA expression at 1 to 3 uM by qRT-PCR analysis. The data set is classed as cell-based. The note with it: t cell, dose 1-3 µM.
Data set [4] addresses T1, Aryl hydrocarbon receptor. In words: Activation of AhR transcription in C57BL/6 mouse naive T cells assessed as increase in CYP1B1 mRNA expression at 1 to 3 uM by qRT-PCR analysis. Format: cell-based. Particulars: t cell, dose 1-3 µM.
For data set [5], the target named is T1, Aryl hydrocarbon receptor. The experiment in a line: Activation of AhR transcription in C57BL/6 mouse naive T cells assessed as increase in CYP1A1 mRNA expression at 3 uM measured after 72 hrs by qRT-PCR analysis relative to control. Particulars: t cell. The data set is classed as cell-based.
Data set [6] addresses T1, Aryl hydrocarbon receptor. The experiment in a line: Activation of AhR transcription in C57BL/6 mouse naive T cells assessed as increase in CYP1A1 mRNA expression at 1 to 3 uM measured after 72 hrs by qRT-PCR analysis. Particulars: t cell, dose 1-3 µM. Format: cell-based.
Data set [7] addresses T1, Aryl hydrocarbon receptor. In words: Activation of AhR transcription in C57BL/6 mouse naive T cells assessed as increase in CYP1A1 mRNA expression at 1 uM by qRT-PCR analysis. The note with it: t cell. Format: cell-based.

Active and inactive are the calls of the source. The rule behind the calls is not given here.

With `COc1cc2c3c(c1OC)-c1cc(O)ccc1CC3NCC2` (configuration not stated), the Activity result in data set [1], in data set [2], in data set [3] and in data set [4] was “Not Active” in each case. In the data set on EL4, the IC50 is 25.9 µM.

With `COc1cc2c3c(c1OC)-c1ccc(O)cc1CC3NCC2` (configuration not stated), the Activity in data set [5] is 150.7%. For the same compound, the IC50 with EL4 came out at 64.4 µM.

For `COc1ccc2c(c1)CCN(C(=O)OCc1ccccc1)C2Cc1cc(OCc2ccccc2)ccc1Br` (configuration not stated), the Activity result in data set [6] is reported as “Not Active”.

For the compound `COc1ccc2c(c1)CC1NCCc3cc(OC)c(OC)c-2c31` (configuration not stated), in data set [5], the Activity worked out at 152.7%. The half-maximal inhibitory concentration (IC50) with EL4 stood at 10.8 µM.

As for `COc1cc2c(cc1O)-c1c(OC)c(OC)cc3c1C(C2)NCC3` (configuration not stated), the Activity result in data set [1], in data set [2], in data set [3] and in data set [4] was “Not Active” each time. Also, the IC50 in the data set with EL4 came to 36.9 µM.

Regarding `COc1cc2c3c(c1OC)-c1ccccc1CC3NCC2` (configuration not stated) [NORNUCIFERINE], the outcome in data set [7] was Active. In addition, the IC50 with EL4 was 26.2 µM.

`CO/C=C/c1cc(OCc2ccccc2)ccc1Br`: the Activity result in data set [6] is “Not Active”.

With `COc1cc2c(cc1O)CC1c3c(cc(OC)c(O)c3-2)CCN1C(=O)OC(C)(C)C` (configuration not stated), in data set [7], the outcome was Active. In addition, the half-inhibitory concentration (IC50) with EL4 is 37 µM.

As to `O=Cc1cc(O)ccc1Br`, the Activity entry in data set [6] is on record as “Not Active”.

Turning to `COc1cccc(CCNC(=O)OCc2ccccc2)c1`, the Activity entry in data set [6] is reported as “Not Active”.

As for `COc1cc2c3c(c1OC)-c1ccccc1CC3N(C)CC2` (stereo not drawn) [(+/-)-NUCIFERINE], the Activity entry in data set [1], in data set [2], in data set [3] and in data set [4] was “Not Active” throughout. Besides, in the data set with EL4, the IC50 amounted to 35.9 µM.

For the compound `COc1cccc(CCN)c1`, the Activity result in data set [6] is given as “Not Active”.

Turning to `COc1cc2c(cc1O)CC1c3c(cc(O)c(OC)c3-2)CCN1C` (configuration not stated), in data set [5], the Activity was found to be 222%. Further, the half-maximal inhibitory concentration (IC50) with EL4 amounted to 70.1 µM.

As to `COc1cc2c(cc1O)CC1NCCc3cc(OC)c(OC)c-2c31` (configuration not stated), in data set [7], the outcome was Active. The concentration for half-maximal inhibition (IC50) with EL4 is 48.4 µM.

As to `COc1cc2c3c(c1)-c1ccc(OCc4ccccc4)cc1CC3N(C(=O)OCc1ccccc1)CC2` (configuration not stated), in data set [6], the Activity result is listed as “Not Active”.

As to `COc1ccc2c(c1)-c1c(OC)c(OC)cc3c1C(C2)NCC3` (configuration not stated), the Activity in data set [5] is given as 177%. The half-maximal inhibitory concentration (IC50) in the data set with EL4 came out at 20.7 µM.

Regarding `COc1cc2c(cc1OC)-c1c(OC)c(OC)cc3c1C(C2)NCC3` (configuration not stated), the Activity entry in data set [1], in data set [2], in data set [3] and in data set [4] was “Not Active” each time. Also, the IC50 in the data set on EL4 turned out to be 13.9 µM.

As for `O=Cc1cc(OCc2ccccc2)ccc1Br`, the Activity result in data set [6] is recorded as “Not Active”.

With `Oc1ccc2c(c1)CC1NCCc3cccc-2c31` (configuration not stated), in the data set with EL4, the result was inactive.
